The source of these data is patent US4885297A, “Thiazolopyridine compounds, processes for the preparation thereof and pharmaceutical composition comprising the same” (Fujisawa Pharmaceutical Co., Ltd., priority 1987, dated 1989).

Test [1] relates to Platelet aggregation (rabbit platelet rich plasma). The test can be described thus: Platelet aggregation in vitro (rabbit platelet rich plasma, ADP- or collagen-induced). The format is cell-based. The note with it: Oryctolagus cuniculus, rabbit PRP, pH 7.4, 37° C. As to the method: Platelet rich plasma (PRP) which contains 6-7×10^8 platelets/ml was prepared from rabbit blood. To the 200 μl of PRP, 5 μl of calcium chloride (1 mM) and 50 μl of 25 mM Tris-acetate solution (pH 7.4) containing 120 mM NaCl or test compound were added successively, and then stirred for 2 min. at 37° C. To the solution, 5 μl of adenosine diphosphate (ADP) (2.5 μM) or collagen (2.5 μg/ml) was added to an aggregation inducer. Aggregation was measured by using an aggregometer (NKK HEMATRACER 1). Activities of inhibitors (test compounds) were expressed as ID50 values i.e. Doses required to inhibit the platelet aggregation responses by 50%.

For test [2], the system named is Platelet aggregation (rat blood). The test can be described thus: Platelet aggregation ex vivo (collagen-induced, after oral administration). The class given is in vivo, Male Sprague-Dawley rats. The note with it: one hour after administration, collagen 5.0 μg/ml. As to the method: Male Sprague-Dawley rats weighing about 250 g were used after overnight fasting. One hour after oral administration of test compound or vehicle of test compound (control), blood was collected into a tube containing 0.1 vol. of 3.8% sodium citrate. To the 0.45 ml of blood, 0.05 ml of collagen (final concentration 5.0 μg/ml) was added and then incubated for 5 min. at 37° C. under shaking.
The reaction was terminated by addition of 1 ml of 10 mM phosphate buffered saline (pH 7.4) containing 11.5 mM EDTA and 1% formalin. The reaction mixture was centrifuged at 70 xg for 5 min. and platelet count of upper phase was measured by Technicon Auto Analizer.
Platelet aggregation was calculated according to the following formula: [formula] A; Platelet count after addition of vehicle of collagen B; Platelet count after addition of collagen
Inhibition of the test compound was calculated according to the following formula; [formula] C; Platelet aggregation (%) of control D; Platelet aggregation (%) of Test compound

Where two headings read alike, the source gives them in different places.

`CN1CCN(C(=O)Cn2c(=O)sc3ncc(Cl)cc32)CC1` [Example 2, 6-chloro-2-oxo-1-[(4-methyl-1-piperazinyl)carbonylmethyl]-1,2-dihydrothiazolo[5,4-b]pyridine]: the IC50 in test [1] (inducer ADP (2.5 μM), read-out: ID50 ADP) was determined as 55 µM; in test [1] (inducer collagen (2.5 μg/ml), read-out: ID50 Collagen), 37 µM. Also, the “Inhibition (%)” value in test [2] (10 mg/kg oral) stood at 8%; in test [2] (32 mg/kg oral), 103%; in test [2] (100 mg/kg oral), 121%.
